Assay results: ChEMBL document CHEMBL1142841, “Synthesis and evaluation of anti-HIV activity of isatin beta-thiosemicarbazone derivatives” (Bioorg Med Chem Lett, 2005)

Columns and labels:
[1] = system: CCRF-CEM; assay: Concentration required to reduce the viability of mock-infected human CEM cells; type: functional
[2] = system: Human immunodeficiency virus; assay: Ratio of CC50 required to reduce the viability of mock-infected human CEM cells to EC50 required to inhibit HTLV-III B induced cytopathicity in that cells; type: functional, Human immunodeficiency virus 1, CCRF-CEM
[3] = system: Human immunodeficiency virus; assay: Effective concentration required to inhibit HTLV-III B induced cytopathicity in human CEM cells; type: functional, organism-based; settings: Human immunodeficiency virus 1, CCRF-CEM

| SMILES | EC50 [3] | CC50 [1] | Selectivity index [2] |
| --- | --- | --- | --- |
| CCN(CC)C(=S)N/N=C1\C(=O)N(CN(Cc2ccccc2)Cc2ccccc2)c2ccccc21 | > 8.29 µM | 8.29 µM | <1 |
| CCN(CC)C(=S)N/N=C1\C(=O)N(CN2CCN(c3ncccn3)CC2)c2ccccc21 | > 12.8 µM | 12.8 µM | <1 |
| CCN(CC)C(=S)N/N=C1\C(=O)N(CN2CCN(c3cc4c(cc3F)c(=O)c(C(=O)O)cn4CC)CC2)c2ccccc21 | 3.12 µM | 37.5 µM | 12.02 |
| CCN(CC)C(=S)N/N=C1\C(=O)N(CN2CCN(c3ccc(F)cc3)CC2)c2ccccc21 | > 14.5 µM | 14.5 µM | <1 |
| CCN(CC)C(=S)N/N=C1\C(=O)N(CN2CCN(c3ccc([N+](=O)[O-])cc3)CC2)c2ccccc21 | > 11.9 µM | 11.9 µM | <1 |
| CCN(CC)C(=S)N/N=C1\C(=O)N(CN(C)C)c2ccccc21 | > 2.86 µM | 2.86 µM | <1 |
| CCN(CC)C(=S)N/N=C1\C(=O)N(CN2CCN(c3cccc(C(F)(F)F)c3)CC2)c2ccccc21 | 2.62 µM | 44.9 µM | 17.14 |

Second part, led by results:

| EC50 [3] | SMILES | CC50 [1] | Selectivity index [2] |
| --- | --- | --- | --- |
| 0.78 µM | O=C1Nc2ccc(Cl)cc2[C@@](C#CC2CC2)(C(F)(F)F)O1 [EFAVIRENZ] | > 200 µM | >256 |
| > 13.3 µM | CCN(CC)C(=S)N/N=C1\C(=O)N(CN2CC(C)OC(C)C2)c2ccccc21 (stereo not given) | 13.3 µM | <1 |
| 3.4 µM | CCN(CC)C(=S)N/N=C1\C(=O)N(CN2CCN(Cc3ccccc3)CC2)c2ccccc21 | 14 µM | 4.12 |
